The results in this text go back to patent publication US10654845B2, “2-(het)aryl-substituted fused bicyclic heterocycle derivatives as pesticides” (BAYER CROPSCIENCE AKTIENGESELLSCHAFT, priority 2015, dated 2020).

Each structure is given as a SMILES string.

Data set [1] concerns Myzus persicae. The experiment in a line: Myzus persicae spray test (Chinese cabbage leaf discs). Format: in vivo. The note with it: Myzus persicae, foliar, 144 h; 500 g/ha, after 6 days, aphids killed; read-out: efficacy in %. Here is the method:
(§1) Myzus persicae Spray Test
Solvent: 78 parts by weight of acetone
• 1.5 parts by weight of dimethylformamide Emulsifier: alkylaryl polyglycol ether
To produce a suitable preparation of active compound, 1 part by weight of active compound is dissolved using the stated parts by weight of solvent and made up with water containing an emulsifier concentration of 1000 ppm until the desired concentration is attained. To produce further test concentrations, the preparation is diluted with emulsifier-containing water.
Discs of Chinese cabbage leaves (Brassica pekinensis) infested by all stages of the green peach aphid (Myzus persicae) are sprayed with an active compound preparation of the desired concentration.
After 6 days, the efficacy in % is determined. 100% means that all the aphids have been killed; 0% means that no aphids have been killed.

Data set [2] concerns Ctenocephalides felis. Briefly: Ctenocephalides felis oral test. Format: in vivo. The note with it: 100 ppm, after 2 days. How it is done: Ctenocephalides felis-Oral Test
(§2) Solvent: dimethyl sulphoxide
To produce a suitable preparation of active compound, 10 mg of active compound are mixed with 0.5 ml of dimethyl sulphoxide. Dilution with citrated cattle blood gives the desired concentration.
About 20 unfed adult cat fleas (Ctenocephalides felis) are placed into a chamber which is closed at the top and bottom with gauze. A metal cylinder whose bottom end is closed with parafilm is placed onto the chamber. The cylinder contains the blood/active compound preparation, which can be imbibed by the fleas through the parafilm membrane.
After 2 days, the kill in % is determined. 100% means that all of the fleas have been killed; 0% means that none of the fleas have been killed.

A further data set deals with Boophilus microplus. Briefly: Boophilus microplus injection test. Format: in vivo. The note with it: 20 μg/animal, assessed after 7 days. How it is done: Boophilus microplus-Injection Test
as §2
To produce a suitable preparation of active compound, 10 mg of active compound are mixed with 0.5 ml of solvent and the concentrate is diluted with solvent to the desired concentration.
1 μl of the active compound solution is injected into the abdomen of 5 engorged adult female cattle ticks (Boophilus microplus). The animals are transferred into dishes and kept in a climate-controlled room.
Efficacy is assessed after 7 days by laying of fertile eggs. Eggs which are not visibly fertile are stored in a climate-controlled cabinet until the larvae hatch after about 42 days. An efficacy of 100% means that none of the ticks has laid any fertile eggs; 0% means that all the eggs are fertile.

The test system of the next data set is Meloidogyne incognita. Briefly: Meloidogyne incognita test. The note with it: 20 ppm, after 14 days, formation of galls. Format: in vivo. Here is the method:
Meloidogyne incognita-Test
Solvent: 125.0 parts by weight of acetone
To produce a suitable preparation of active compound, 1 part by weight of active compound is mixed with the stated amount of solvent and the concentrate is diluted with water to the desired concentration.
Vessels are filled with sand, active compound solution, an egg/larvae suspension of the southern root-knot nematode (Meloidogyne incognita) and lettuce seeds. The lettuce seeds germinate and the plants develop. The galls develop on the roots.
After 14 days, the nematicidal efficacy in % is determined by the formation of galls. 100% means that no galls were found; 0% means that the number of galls on the treated plants corresponds to the untreated control.

The subject of data set [3] is Anopheles gambiae strain RSPH (homozygot kdr). The experiment in a line: Anopheles test (ANPHGB surface treatment). It is filed as in vivo. The conditions noted are these: 24 hours after contact. How it is done: Anopheles Test (ANPHGB Surface Treatment)
(§3) Solvent: acetone+2000 ppm rapeseed oil methyl ester (RME)
To produce an appropriate active compound formulation, the active compound is dissolved in the solvent (2 mg/ml). The active compound formulation is pipetted onto a glazed tile and, after it has dried off, adult mosquitoes of the species Anopheles gambiae strain RSPH (homozygot kdr) are placed onto the treated tile. The exposure time is 30 minutes.
(§4) 24 hours after contact with the treated surface, mortality in % is determined. 100% means that all mosquitoes have been killed; 0% means that none of the mosquitoes have been killed.

For the next data set, the system named is Phaedon cochleariae. Briefly: Phaedon cochleariae spray test. It is filed as in vivo. The note with it: 500 g/ha, after 7 days, beetle larvae killed; for pest or weed control at 500 g/ha: Phaedon cochleariae, 168 h, read-out: efficacy in %. Summed up:
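Compound dissolved in acetone/dimethylformamide and diluted with water containing 1000 ppm alkylaryl polyglycol ether emulsifier to test concentrations, applied as a spray. Efficacy (% beetle larvae killed) assessed after 7 days.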

Data set [4] concerns Aedes aegypti strain MONHEIM. Briefly: whole plant or invertebrate. Format: in vivo. The conditions noted are these: read-out: mortality in %. How it is done:
Aedes Test (AEDSAE Surface Treatment)
as §3
To produce an appropriate active compound formulation, the active compound is dissolved in the solvent (2 mg/ml). The active compound formulation is pipetted onto a glazed tile and, after it has dried off, adult mosquitoes of the species Aedes aegypti strain MONHEIM are placed onto the treated tile. The exposure time is 30 minutes.
as §4

A further data set has as its system Lucilia cuprina. Briefly: Lucilia cuprina test. It is filed as in vivo. The conditions noted are these: 100 ppm, after 2 days, L1 larvae. How it is done:
as §2
(§5) To produce a suitable preparation of active compound, 10 mg of active compound are mixed with 0.5 ml of dimethyl sulphoxide, and the concentrate is diluted with water to the desired concentration.
About 20 L1 larvae of the Australian sheep blowfly (Lucilia cuprina) are transferred into a test vessel containing minced horsemeat and the active compound preparation of the desired concentration.
After 2 days, the kill in % is determined. 100% means that all the larvae have been killed; 0% means that no larvae have been killed.

The test system of data set [5] is Anopheles funestus strain FUMOZ-R. Briefly: whole plant or invertebrate. Format: in vivo. The conditions noted are these: read-out: mortality in %. How it is done: Anopheles Test (ANPHFU Surface Treatment)
as §3
To produce an appropriate active compound formulation, the active compound is dissolved in the solvent (2 mg/ml). The active compound formulation is pipetted onto a glazed tile and, after it has dried off, adult mosquitoes of the species Anopheles funestus strain FUMOZ-R (Hunt et al., Med Vet Entomol. 2005 September; 19(3):271-5) are placed onto the treated tile. The exposure time is 30 minutes.
as §4

A short description of data set [6]: log P by HPLC on reversed-phase column (C18), EEC Directive 79/831 Annex V.A8. The note with it: for chromatographic logP: reversed-phase HPLC column (C18). An excerpt:
Called log P (HCOOH) in the table.
Called log P (neutral) in the table.

For another data set, the system named is Musca domestica. The experiment in a line: Musca domestica test. The note with it: 100 ppm, after 2 days, adult houseflies. Format: in vivo. Here is the method:
as §2, §5
Vessels containing a sponge treated with sugar solution and the active compound preparation of the desired concentration are populated with 10 adult houseflies (Musca domestica).
After 2 days, the kill in % is determined. 100% means that all of the flies have been killed; 0% means that none of the flies have been killed.

Data set [7] relates to Myzus persicae. Briefly: Myzus persicae spray test (bell pepper plants). Format: in vivo. The note with it: 100 ppm, after 6 days. How it is done:
as §1
Solvent: 7 parts by weight of dimethylformamide
Emulsifier: alkylaryl polyglycol ether
To produce a suitable preparation of active compound, 1 part by weight of active compound is dissolved using the stated parts by weight of solvent and made up with water containing an emulsifier concentration of 1000 ppm until the desired concentration is attained. To produce further test concentrations, the preparation is diluted with emulsifier-containing water. If the addition of ammonium salts or/and penetrants is required, these are each added in a concentration of 1000 ppm to the formulation solution.
Bell pepper plants (Capsicum annuum) severely infested with the green peach aphid (Myzus persicae) are treated by spraying with the active compound preparation in the desired concentration.
After 6 days, the kill in % is determined. 100% means that all of the aphids have been killed; 0% means that none of the aphids have been killed.

The subject of data set [8] is Ctenocephalides felis. The experiment in a line: Ctenocephalides felis in vitro contact tests with adult cat fleas. It is filed as in vivo. The note with it: 5 μg/cm^2 (500 g/ha), after 48 h. Here is the method:
Ctenocephalides felis—In Vitro Contact Tests with Adult Cat Fleas
For the coating of the test tubes, 9 mg of active compound are first dissolved in 1 ml of acetone p.a. and then diluted to the desired concentration with acetone p.a. 250 μl of the solution are distributed homogeneously on the inner walls and the base of a 25 ml test tube by turning and rocking on an orbital shaker (rocking rotation at 30 rpm for 2 h). With 900 ppm active compound solution and internal surface 44.7 cm^2, given homogeneous distribution, an area-based dose of 5 μg/cm^2 is achieved.
After the solvent has evaporated off, the tubes are populated with 5-10 adult cat fleas (Ctenocephalides felis), sealed with a perforated plastic lid and incubated in a horizontal position at room temperature and ambient humidity. After 48 h, efficacy is determined. To this end, the test tubes are stood upright and the fleas are knocked to the base of the tube. Fleas which remain motionless at the base or move in an uncoordinated manner are considered to be dead or moribund.
100% efficacy means that all the fleas were dead or moribund. 0% efficacy means that no fleas were harmed.

In the next data set the test system is Spodoptera frugiperda. The experiment in a line: Spodoptera frugiperda spray test. Format: in vivo. The conditions noted are these: 500 g/ha, after 7 days, caterpillars killed. Here is the method:
Spodoptera frugiperda-Spray Test Solvent: 78.0 parts by weight of acetone • • 1.5 parts by weight of dimethylformamide Emulsifier: alkylaryl polyglycol ether […] To produce further test concentrations, the preparation is diluted with emulsifier-containing water. Leaf disks of maize (Zea mays) are sprayed with an active compound preparation of the desired concentration and, after drying, populated with caterpillars of the armyworm (Spodoptera frugiperda).

Setting [9] is: pH 2.7, logP-acidic, LC-MS acidic range, pH 2.7 (HCOOH), C18, 55° C.
The mark [10] stands for this setting: pH 7.8, log P (neutral), preparation examples, neutral range, pH 7.8.
Setting [11] is: pH 7.8, logP-neutral, LC-MS neutral range, pH 7.8, C18, 55° C.

The mortality is the percentage killed. What is called chromatographic logP is a lipophilicity value derived from retention on a column. Read a high chromatographic logP as higher lipophilicity.

Consider `CCS(=O)(=O)c1ccc(N)nc1-c1nc2cc(C(F)(F)F)ncc2n1C` [Example 14, 5-(Ethylsulphonyl)-6-[3-methyl-6-(trifluoromethyl)-3H-imidazo[4,5-c]pyridin-2-yl]pyridine-2-amine], for which the pest or weed control at 500 g/ha with Myzus persicae [1] was 90%; with Phaedon cochleariae, 100%. Further, the kill in % with Ctenocephalides felis [2] and in the data set with Lucilia cuprina was 100% each time. For the same compound, the “efficacy (laying of fertile eggs)” value in the data set with Boophilus microplus is 80%. Also, the “nematicidal efficacy in %” value in the data set on Meloidogyne incognita came out at 90%. For the same compound, the mortality at 20 mg/m2 in [3] (20 mg/m^2, 30 minutes exposure) lay in the range of 80 to 100%; in data set [4], 80 to 100%; in data set [5], 80 to 100%. The mortality at 100 mg/m2 in [3] (100 mg/m^2, 30 minutes exposure) is 80 to 100%; in data set [4], 80 to 100%; in [5], 80 to 100%. The chromatographic logP stood at 1.63 in [6] (setting [9]), 1.62 in data set [6] (setting [10]) and 1.62 in [6] (setting [11]).
`CCS(=O)(=O)c1ccc(NC(=O)C2CC2)nc1-c1nc2cc(C(F)(F)F)ncc2n1C` [Example 22]: the kill in % turned out to be 100% in the data set on Musca domestica, 100% in the data set with Ctenocephalides felis [2], 100% in the data set on Myzus persicae [7] and 90% with Lucilia cuprina. Besides, the “efficacy (laying of fertile eggs)” value in the data set with Boophilus microplus stood at 80%. Further, in the data set on Ctenocephalides felis [8], the “efficacy (dead or moribund fleas)” value is 100%. For the same compound, the efficacy in % in the data set with Phaedon cochleariae turned out to be 100%. Besides, in [6] (pH 2.7), the logP-acidic is 2.43.
Take `CCS(=O)(=O)c1ccc(/C=C/C2CC2)nc1-c1nc2cc(C(F)(F)F)ncc2n1C` [Example 40, 2-{6-[(E)-2-Cyclopropylvinyl]-3-(ethylsulphonyl)pyridin-2-yl}-3-methyl-6-(trifluoromethyl)-3H-imidazo[4,5-c]pyridine]: in the data set on Myzus persicae [7], the kill in % is recorded as 100%. The pest or weed control at 500 g/ha in the data set on Phaedon cochleariae stood at 100%. The efficacy in % in the data set with Spodoptera frugiperda was found to be 100%. Further, the chromatographic logP amounted to 3.33 in [6] (setting [9]), 3.24 in data set [6] (setting [10]) and 3.24 in data set [6] (setting [11]).
